# How the values were obtained:
# Test in all cases: Test C preemergence
# Format in all cases: in vivo
# [1] = tested on: waterhemp (common waterhemp, Amaranthus rudis); conditions: for Plant response rating, Waterhemp: scale 0 to 100, 0 no effect, 100 complete control
# In short: (§1)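 Assessment: visual, 13–15 d after treatment, 0 (no effect) to 100 (complete control) relative to controls. Treatment: preemergence to seeds in loam-sand soil, or postemergence to 1- to 4-leaf plants in peat-based medium. Formulation: non-phytotoxic solvent mixture with surfactant.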
# [2] = tested on: ryegrass, Italian (Italian ryegrass, Lolium multiflorum); conditions: for Plant response rating, Ryegrass, Italian: scale 0 to 100, 0 no effect, 100 complete control
# In short: as §1
# [3] = tested on: wheat (winter wheat, Triticum aestivum); conditions: for Plant response rating, Wheat: scale 0 to 100, 0 no effect, 100 complete control
# In short: as §1
# [4] = tested on: morningglory (Ipomoea coccinea); conditions: for Plant response rating, Morningglory: scale 0 to 100, 0 no effect, 100 complete control
# In short: as §1
# [5] = tested on: crabgrass, large (large crabgrass, Digitaria sanguinalis); conditions: for Plant response rating, Crabgrass, Large: scale 0 to 100, 0 no effect, 100 complete control
# In short: as §1
# [6] = tested on: pigweed (Amaranthus retroflexus); conditions: for Plant response rating, Pigweed: scale 0 to 100, 0 no effect, 100 complete control
# In short: as §1
# [7] = tested on: ragweed (common ragweed, Ambrosia elatior); conditions: for Plant response rating, Ragweed: scale 0 to 100, 0 no effect, 100 complete control
# In short: as §1
# [8] = tested on: lambsquarters (Chenopodium album); conditions: for Plant response rating, Lambsquarters: scale 0 to 100, 0 no effect, 100 complete control
# In short: as §1
# [9] = tested on: johnsongrass (Sorghum halepense); conditions: for Plant response rating, Johnsongrass: scale 0 to 100, 0 no effect, 100 complete control
# In short: as §1
# [10] = tested on: oilseed rape (Brassica napus); conditions: for Plant response rating, Oilseed Rape: scale 0 to 100, 0 no effect, 100 complete control
# In short: as §1
# [11] = tested on: velvetleaf (Abutilon theophrasti); conditions: for Plant response rating, Velvetleaf: scale 0 to 100, 0 no effect, 100 complete control
# In short: as §1
# [12] = tested on: foxtail, giant (giant foxtail, Setaria faberii); conditions: for Plant response rating, Foxtail, Giant: scale 0 to 100, 0 no effect, 100 complete control
# In short: as §1
# soybean (Glycine max) = conditions: for Plant response rating, Soybean: scale 0 to 100, 0 no effect, 100 complete control
# In short: as §1
# corn (Zea mays) = conditions: for Plant response rating, Corn: scale 0 to 100, 0 no effect, 100 complete control
# In short: as §1
# [13] = tested on: nutsedge, yellow (yellow nutsedge, Cyperus esculentus); conditions: for Plant response rating, Nutsedge, Yellow: scale 0 to 100, 0 no effect, 100 complete control
# In short: as §1
# [14] = tested on: Galium (catchweed bedstraw, Galium aparine); conditions: for Plant response rating, Galium: scale 0 to 100, 0 no effect, 100 complete control
# In short: as §1
# [15] = tested on: barnyardgrass (Echinochloa crus-galli); conditions: for Plant response rating, Barnyardgrass: scale 0 to 100, 0 no effect, 100 complete control
# In short: as §1
# [16] = 31 g ai/ha, 0 is no effect, 100 is complete control
structure (smiles),measurement,setting,value
CN1CC(c2cccc(C(F)(F)F)c2)C(C(=O)Nc2ccccc2S(C)(=O)=O)C1=O (centres unmarked) [Compound 637],"Plant response rating (scale of 0 to 100), Waterhemp",[1]; [16],75
same,"Plant response rating, Waterhemp",[1]; 62 g ai/ha,80
same,"Plant response rating, Waterhemp",[1]; 125 g ai/ha,85
same,"Plant response rating, Waterhemp",[1]; 250 g ai/ha,90
same,"Plant response rating (scale of 0 to 100), Ryegrass, Italian",[2]; [16],55
same,"Plant response rating, Ryegrass, Italian",[2]; 62 g ai/ha,30
same,"Plant response rating, Ryegrass, Italian",[2]; 125 g ai/ha,30
same,"Plant response rating, Ryegrass, Italian",[2]; 250 g ai/ha,35
same,"Plant response rating (scale of 0 to 100), Wheat",[3]; [16],60
same,"Plant response rating, Wheat",[3]; 62 g ai/ha,50
same,"Plant response rating, Wheat",[3]; 125 g ai/ha,90
same,"Plant response rating, Wheat",[3]; 250 g ai/ha,90
same,"Plant response rating (scale of 0 to 100), Morningglory",[4]; [16],10
same,"Plant response rating, Morningglory",[4]; 62 g ai/ha,35
same,"Plant response rating, Morningglory",[4]; 125 g ai/ha,40
same,"Plant response rating, Morningglory",[4]; 250 g ai/ha,45
same,"Plant response rating (scale of 0 to 100), Crabgrass, Large",[5]; [16],95
same,"Plant response rating, Crabgrass, Large",[5]; 62 g ai/ha,100
same,"Plant response rating, Crabgrass, Large",[5]; 125 g ai/ha,100
same,"Plant response rating, Crabgrass, Large",[5]; 250 g ai/ha,100
same,"Plant response rating (scale of 0 to 100), Pigweed",[6]; [16],70
same,"Plant response rating, Pigweed",[6]; 62 g ai/ha,80
same,"Plant response rating, Pigweed",[6]; 125 g ai/ha,85
same,"Plant response rating, Pigweed",[6]; 250 g ai/ha,85
same,"Plant response rating (scale of 0 to 100), Ragweed",[7]; [16],55
same,"Plant response rating, Ragweed",[7]; 62 g ai/ha,60
same,"Plant response rating, Ragweed",[7]; 125 g ai/ha,75
same,"Plant response rating, Ragweed",[7]; 250 g ai/ha,75
same,"Plant response rating (scale of 0 to 100), Lambsquarters",[8]; [16],25
same,"Plant response rating, Lambsquarters",[8]; 62 g ai/ha,55
same,"Plant response rating, Lambsquarters",[8]; 125 g ai/ha,55
same,"Plant response rating, Lambsquarters",[8]; 250 g ai/ha,70
same,"Plant response rating (scale of 0 to 100), Johnsongrass",[9]; [16],45
same,"Plant response rating, Johnsongrass",[9]; 62 g ai/ha,70
same,"Plant response rating, Johnsongrass",[9]; 125 g ai/ha,75
same,"Plant response rating, Johnsongrass",[9]; 250 g ai/ha,85
same,"Plant response rating (scale of 0 to 100), Oilseed Rape",[10]; [16],10
same,"Plant response rating, Oilseed Rape",[10]; 62 g ai/ha,80
same,"Plant response rating, Oilseed Rape",[10]; 125 g ai/ha,85
same,"Plant response rating, Oilseed Rape",[10]; 250 g ai/ha,85
same,"Plant response rating (scale of 0 to 100), Velvetleaf",[11]; [16],0
same,"Plant response rating, Velvetleaf",[11]; 62 g ai/ha,10
same,"Plant response rating, Velvetleaf",[11]; 125 g ai/ha,45
same,"Plant response rating, Velvetleaf",[11]; 250 g ai/ha,65
same,"Plant response rating (scale of 0 to 100), Foxtail, Giant",[12]; [16],90
same,"Plant response rating, Foxtail, Giant",[12]; 62 g ai/ha,90
same,"Plant response rating, Foxtail, Giant",[12]; 125 g ai/ha,95
same,"Plant response rating, Foxtail, Giant",[12]; 250 g ai/ha,95
same,"Plant response rating (scale of 0 to 100), Soybean",soybean (Glycine max); [16],0
same,"Plant response rating, Soybean",soybean (Glycine max); 62 g ai/ha,0
same,"Plant response rating, Soybean",soybean (Glycine max); 125 g ai/ha,0
same,"Plant response rating, Soybean",soybean (Glycine max); 250 g ai/ha,5
same,"Plant response rating (scale of 0 to 100), Corn",corn (Zea mays); [16],35
same,"Plant response rating, Corn",corn (Zea mays); 62 g ai/ha,55
same,"Plant response rating, Corn",corn (Zea mays); 125 g ai/ha,75
same,"Plant response rating, Corn",corn (Zea mays); 250 g ai/ha,85
same,"Plant response rating (scale of 0 to 100), Nutsedge, Yellow",[13]; [16],0
same,"Plant response rating, Nutsedge, Yellow",[13]; 62 g ai/ha,85
same,"Plant response rating, Nutsedge, Yellow",[13]; 125 g ai/ha,0
same,"Plant response rating, Nutsedge, Yellow",[13]; 250 g ai/ha,65
same,"Plant response rating (scale of 0 to 100), Galium",[14]; [16],0
same,"Plant response rating, Galium",[14]; 62 g ai/ha,80
same,"Plant response rating, Galium",[14]; 125 g ai/ha,80
same,"Plant response rating, Galium",[14]; 250 g ai/ha,85
same,"Plant response rating (scale of 0 to 100), Barnyardgrass",[15]; [16],90
same,"Plant response rating, Barnyardgrass",[15]; 62 g ai/ha,90
same,"Plant response rating, Barnyardgrass",[15]; 125 g ai/ha,95
same,"Plant response rating, Barnyardgrass",[15]; 250 g ai/ha,95
